Results reported in patent US20040186181A1, “Method and composition for decreasing ghrelin levels” (InterHealth Nutraceuticals, Incorporated, priority 2003, published 2004).

Legend:
cholesterol [1] = settings: animal models; cited from earlier work
[2] = Ingestion of HCA by persons, serum levels and appetite (controlled trials); format: in vivo
Excerpt: (§1) It has been shown that ingestion of compositions incorporating a salt of (−) hydroxycitric acid (HCA) leads to increased levels of serotonin. Serotonin levels, like ghrelin levels, also are related to NPY, and an increase in serotonin levels is a well-established mechanism of appetite suppression. Ingestion of HCA by persons and rodents results in a decrease in serum leptin and ghrelin levels and an increase in serum serotonin levels.

[3] = Ingestion of HCA by rodents, serum levels; format: in vivo
Excerpt: as §1

cholesterol [4] = settings: in vivo; cited from earlier work
DNA = settings: cited from earlier work

**Q.** With Gymnemic acid as the molecule, how does the cholesterol (cholesterol [1]) read?
**A.** The cholesterol was “lower cholesterol”.

**Q.** For `O=C(O)CC(O)(C(=O)O)C(O)C(=O)O` (single isomer, unassigned; (-)) [HCA, (−)hydroxycitric acid], which appetite ([2]; amount of food remaining on plates, controlled trials) is on record?
**A.** Its appetite is “time-dependent decrease in appetite”.

**Q.** And the serum ghrelin levels ([2]; ingestion of HCA)?
**A.** The serum ghrelin levels was “decrease”.

**Q.** What about the serum leptin levels ([2]; ingestion of HCA) of the same molecule?
**A.** Its serum leptin levels is “decrease”.

**Q.** What about the serum serotonin levels ([2]; ingestion of HCA) of the same molecule?
**A.** The serum serotonin levels was “increase”.

**Q.** What about the serum ghrelin levels [3] of the same molecule?
**A.** Its serum ghrelin levels is “decrease”.

**Q.** And the serum leptin levels [3]?
**A.** Its serum leptin levels is “decrease”.

**Q.** And the serum serotonin levels [3]?
**A.** The serum serotonin levels was “increase”.

**Q.** Which cholesterol levels (cholesterol [4]) does the source give for `O=C(O[C@@H]1Cc2c(O)cc(O)cc2O[C@@H]1c1cc(O)c(O)c(O)c1)c1cc(O)c(O)c(O)c1` [EGCG, epigallocatechin gallate] here?
**A.** Its cholesterol levels is “reduce cholesterol levels”.

**Q.** Which safety and toxicity (DNA) does the source give for chromium picolinate here?
**A.** Its safety and toxicity is “damage DNA and be mutagenic”.
